From US6337348B1, “Oxy-vanadium (iv) complexes having spermicidal activity” (Parker Hughes Institute, priority 1998, dated 2002)

Assays:
Assay type in all cases: cell-based
human sperm [1] = experiment: FITC-Annexin V surface binding flow cytometry; conditions: 100 μM, 12 hours, 37° C.
Procedure: In order to examine the expression of phosphatidyl serine on the sperm surface following oxovanadium (IV) complex exposure, surface binding of FITC-Annexin V was evaluated by flow cyotometry as described in Vermes et al., 1995, J. Immunol. Meth., […]:39-51. One ml aliquots of highly motile sperm (10^7) in triplicate were incubated in BWW−0.3% BSA at 37° C. for 12 hours with and without 100 μM of each of the oxovanadium (IV) complexes VO(phen), VO(phen)2, VO(Me2—phen), VO(Me2—phen)2, VO(Cl—phen), VO(Cl—phen)2, VO(bipy), VO(bipy)2, VO(Me2—bipy), VO(Me2—bipy)2, and VO(Br,OH—acph)2 in 0.1% DMSO. After exposure to these complexes, sperm were washed with 1% Tyrode's salt solution containing 1% BSA (1% TBSA), and the pellets were resuspended in the same medium. The sperm suspension was reacted for 30 minutes at room temperature with 6 μg/ml of FITC-conjugated recombinant human Annexin V (Caltag Laboratories, San Francisco, Calif.). After two washes in Tyrode's salt solution, sperm were resuspended in 1% TBSA containing 1 μg/ml propidium iodide (PI) and analyzed for surface-bound Annexin V and PI-permeability by quantitative flow cytometry using an argon laser for excitation of fluorescence. Annexin V and PI binding were simultaneously measured in oxovanadium (IV) complex-exposed and control sperm as described previously (de Lamirande et al., 1993, Fertil Seril 59:1291-1295). The percentages of sperm positive for Annexin V and PI were determined using the cutoff signals for membrane-intact motile sperm. Two separate experiments were performed to assess the surface expression of phosphatidyl serine following exposure of sperm to oxovanadium (IV) complexes.

human sperm [2] = experiment: Flow cytometric quantitation of sperm acrosome reaction (anti-CD46 mAb binding); conditions: tested at 100 μM, 3 hours, 37° C., mean of two experiments
Procedure: In experiments designed to assess the comparative effects of oxovanadium (IV) complexes and N-9 on sperm acrosome reaction, motile fractions of sperm (10^7/ml) prepared from a single donor were incubated in 1 ml of BWW−0.3% BSA in the presence of 100 μM each of the vanadocene complexes, VO(phen), VO(phen)2, VO(Me2—phen), VO(Me2—phen)2, VO(Cl—phen), VO(Cl—phen)2, VO(bipy), VO(bipy)2, VO(Me2—bipy), VO(Me2—bipy)2, and VO(Br,OH—acph)2 in 0.1% DMSO, N-9, or DMSO (0.1%) alone at 37° C. After 3 hours, 5 μg/ml of purified, phycoerythrin (PE)-conjugated murine anti-CD46 monoclonal antibody (mAb; clone 122-2; Research Diagnostics, Flanders, N.J.) was added and the sperm suspensions incubated for an additional 30 minutes. The suspensions was washed in Tyrode's salt solution (Sigma) containing 1% BSA (1% TBSA) and the percentage of CD46-positive sperm were analyzed by flow cytometry using a FACS Vantage flow cytometer (Becton Dickinson, Mountain View, Calif.), as described previously (DeCruz et al., 1996, Biol Reprod. 54:1217-1228; DeCruz et al., 1992, Fertil. Seril., 58:633-636). Two separate experiments were performed to quantitate acrosomal loss following exposure of sperm to oxovanadium (IV) complexes.

human sperm [3] = experiment: Sperm immobilization assay (SIA), motility by CASA; conditions: for EC50: read-out: EC50 (concentration that decreases the proportion of motile sperm by 50%), 3 hours incubation at 37° C., BWW-0.3% BSA, serial 2-fold dilutions 250 μM to 1.9 μM, mean of two experiments
Procedure: To evaluate the spermicidal effects of complexes of oxovanadium (IV), VO(phen), VO(phen)2, VO(Me2—phen), VO(Me2—phen)2, VO(Cl—phen), VO(Cl—phen)2], VO(bipy), VO(bipy)2, VO(Me2—bipy), VO(Me2—bipy)2, and VO(Br,OH—acph)2, a highly motile fraction of pooled donor sperm (N=5) was prepared by discontinuous (90−45%). Percoll gradient (Conception Technologies, San Diego, Calif.) centrifugation and the “swim-up” method as described previously (Aitken et al., 1989, Biol. Reprod. 40:183-197). All donor specimens were obtained after informed consent and in compliance with the guidelines of the Hughes Institutional Review Board. Motile sperm (≳10×10^6/ml) were suspended in 1 ml of Biggers, Whitten, and Whittingham's medium (BWW) containing 0.3% BSA (fraction V; Sigma Chemical Co., St. Louis, Mo.) in the presence and absence of serial 2-fold dilutions of test substance (250 μM−1.9 μM) in 0.25% dimethyl sulfoxide (DMSO). For each experiment, fresh stock solutions (100 mM) of vanadium compounds were prepared in DMSO. A corresponding volume of DMSO (0.25%) was added to control sperm suspension. After 3 hours of incubation at 37° C., the percentage of motile sperm was evaluated by computer-assisted sperm motion analysis (CASA) as described previously (Aitken et al., 1989, Supra). The percentages of motilities were compared with those of sham-treated control suspensions of motile sperm.
For CASA, 4 μl each of sperm suspension was loaded into two 20 μm Microcell chambers placed onto a counting chamber at 37° C. At least 5-8 fields per chamber were scanned for analysis using a Hamilton Thorne Integrated Visual Optical System (IVOS) version 10 instrument (Hamilton Thorne Research Inc., Danvers, Mass.). Each field was recorded for 30 seconds. The Hamilton Thorne computer calibrations were set at 30 frames at a frame rate of 30 images/seconds. Other settings were as follows: minimum contrast 8; minimum size 6; low-size gate, 1.0; high-size gate,2.9; low-intensity gate, 0.6; high-intensity gate, 1.4; phase-contrast illumination; low path velocity at 10 μm/seconds and threshold straightness at 80%; magnification factor, 1.95. The performance of the analyzer was periodically checked using the playback function.
Results for the various numerical sperm functional parameters are presented as mean±standard deviation (SD) values. Comparison between oxovanadium (IV) complex-treated and control sperm relative to sperm motility parameters and apoptosis were performed using paired, two-tailed Student's T-test. A p value of <0.05 was considered significant.

Row | Molecule | Annexin V positive sperm (%) (human sperm [1]) | Anti-CD46 positive sperm (%) (human sperm [2]) | EC50 (human sperm [3]) [µM] | Annexin V positive sperm (%) (human sperm [1]; listed as VO(Cl—phen)2) | Anti-CD46 positive sperm (%) (human sperm [2]; listed as VO(Cl—phen)2) | fold more potent than N-9 (spermicidal activity) (human sperm [3]; identical experimental conditions) [fold] | Anti-CD46 positive sperm (%) (human sperm [2]; listed as VO(Br,OH—acph)2)
1 | (diaqua)(4,4′-dimethyl-2,2′-bipyridyl)oxovanadium (IV) sulfate [VO(Me2-bipy)] | 47 | 6.4 | 83 |  |  |  | 
2 | (aqua)bis(4,4′-dimethyl-2,2′-bipyridyl)oxovanadium (IV) sulfate [VO(Me2-bipy)2] | 78 | 3.2 | 72.5 |  |  |  | 
3 | O.O.O=S(=O)([O-])[O-].[O]=[V+2].c1cnc2c(c1)ccc1cccnc12 [VO(phen), (diaqua)(1,10-phenanthroline)oxovanadium (IV) sulfate] | 97 | 9.7 | 37 |  |  |  | 
4 | O.O=S(=O)([O-])[O-].[O-2].[V+4].c1ccc(-c2ccccn2)nc1.c1ccc(-c2ccccn2)nc1 [VO(bipy)2, (aqua)bis(2,2′-bipyridyl)oxovanadium (IV) sulfate] | 26 | 4.7 | 35.3 |  |  |  | 
5 | Clc1cc2cccnc2c2ncccc12.Clc1cc2cccnc2c2ncccc12.O.O=S(=O)([O-])[O-].[O]=[V+2] [VO(Cl-phen)2, (aqua)bis(5-chloro-1,10-phenanthroline)oxovanadium (IV) sulfate] | 99 | 21.5 | 5.5 | 99 | 21.5 | 14 | 
6 | Clc1cc2cccnc2c2ncccc12.O.O.O=S(=O)([O-])[O-].[O]=[V+2] [VO(Cl-phen), (diaqua)(5-chloro-1,10-phenanthroline)oxovanadium (IV) sulfate] | 90 | 11.2 | 39.1 |  |  |  | 
7 | O.O=S(=O)([O-])[O-].[O]=[V+2].c1cnc2c(c1)ccc1cccnc12.c1cnc2c(c1)ccc1cccnc12 [VO(phen)2, (aqua)bis(1,10-phenanthroline)oxovanadium (IV) sulfate] | 98 | 9.9 | 6.5 |  |  |  | 
8 | Cc1ccnc2c1ccc1c(C)ccnc12.O.O.O=S(=O)([O-])[O-].[O]=[V+2] [VO(Me2-phen), (diaqua)(4,7-dimethyl-1,10-phenanthroline)oxovanadium (IV) sulfate] | 96 | 14.0 | 20.5 |  |  |  | 
9 | bis(5′-bromo-2′-hydroxyacetophenone)oxovanadium (IV) [VO(Br,OH-acph)2] | 95 | 24.3 | 13.4 |  |  |  | 24.3
10 | O.O.O=S(=O)([O-])[O-].[O]=[V+2].c1ccc(-c2ccccn2)nc1 [VO(bipy), (diaqua)(2,2′-bipyridyl)oxovanadium (IV) sulfate] | 36 | 6.1 | 118 |  |  |  | 
11 | Cc1ccnc2c1ccc1c(C)ccnc12.Cc1ccnc2c1ccc1c(C)ccnc12.O.O=S(=O)([O-])[O-].[O-2].[V+4] [VO(Me2-phen)2, (aqua)bis(4,7-dimethyl-1,10-phenanthroline)oxovanadium (IV) sulfate] | 17 | 11.7 | 47.9 |  |  |  | 
